{"source": "paper PMC7802074", "about": "“Azanitrile Inhibitors of the SmCB1 Protease Target Are Lethal to Schistosoma mansoni: Structural and Mechanistic Insights into Chemotype Reactivity” (ACS Infectious Diseases, 2020)", "key": {"recombinant SmCB1": {"target": "recombinant SmCB1 (Schistosoma mansoni, UniProt Q8MNY2, T185A/T300A)", "sequence (Q8MNY2 87-340 T185A/T300A)": "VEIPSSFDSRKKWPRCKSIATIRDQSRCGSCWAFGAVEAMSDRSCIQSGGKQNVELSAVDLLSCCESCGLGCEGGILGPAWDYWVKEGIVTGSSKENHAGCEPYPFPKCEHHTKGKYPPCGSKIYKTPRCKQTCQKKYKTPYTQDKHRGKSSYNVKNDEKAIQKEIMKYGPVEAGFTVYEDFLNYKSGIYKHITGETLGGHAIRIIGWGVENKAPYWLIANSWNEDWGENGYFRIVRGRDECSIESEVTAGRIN", "assay": "SmCB1 kinetic inhibition assay with fluorogenic substrate Cbz-Phe-Arg-AMC", "format": "biochemical", "conditions": "substrate Cbz-Phe-Arg-AMC; for Ki: SmCB1 inhibition Ki, kinetic activity assay, pH 5.5, 37 °C; for SmCB1 inhibition k2nd (second-order rate constant): slow-binding azadipeptide nitriles", "experimental": "Inhibition measurements were performed in triplicates in 96-well microplates (100 μL assay volume) at 37 °C. SmCB1 (20–40 pM) was added to a mixture of the fluorogenic substrate Cbz-Phe-Arg-AMC (20 μM) and an inhibitor (0–100 μM) in 0.1 M sodium acetate, pH 5.5, containing 2.5 mM dithiothreitol and 0.1% PEG 6000. The substrate hydrolysis was monitored in an Infinite M1000 microplate reader (Tecan, Männedorf, Switzerland) at excitation and emission wavelengths of 360 and 465 nm, respectively, for up to 15 and 60 min for fast- and slow-binding inhibitors, respectively. […] For slow-binding inhibitors, an observed first-order rate constant kobs was calculated at each inhibitor concentration by fitting the progress curve to the equation P = vst + (vi – vs)(1 – […])/kobs + d, where P is the product formation, vs is the steady-state velocity, t is the reaction time, vi is the initial velocity, and d is the offset. The inhibition constant Ki′ was determined by nonlinear regression using the equation vs/v0 = 1/(1 + [I]/Ki′). The true inhibition constants Ki were then calculated using the equation Ki = Ki′/(1 + [S]/Km), where [S] is the substrate concentration and Km is the Michaelis constant. The apparent second-order rate constant k2nd′ was determined by fitting to the linear equation kobs = k2nd′[I] + koff, where koff is the first-order rate constants for the dissociation of the enzyme–inhibitor complex and the true constant k2nd was calculated by the correction k2nd = k2nd′(1 + [S]/Km). […] In none of the assay systems did the final concentration of DMSO exceed 1.5%."}, "[1]": {"system": "S. mansoni newly transformed schistosomula (NTS)", "assay": "Schistosome phenotypic assay", "format": "cell-based, Schistosoma mansoni", "conditions": "for Severity score Day 1 / Severity score Day 2 / Severity score Day 3 / Severity score Day 4: 10 μM inhibitor, scale 0 (no effect) to 4 (severe); for Severity score Day 1: 24 h; for Severity score Day 2: 48 h", "experimental": "Newly transformed schistosomula (NTS) of S. mansoni were prepared by mechanically transforming infective larvae (cercariae) as described previously.[70],[71] NTS (200–300 parasites) were incubated in 200 μL of Basch Medium 169 containing 5% FBS, 100 U mL^–1 penicillin, and 100 μg mL^–1 streptomycin at 5% CO2 and 37 °C.[70],[72],[73] Inhibitors were added at the final concentration of 10 μM,[20],[69] and changes in phenotypes were observed every 24 h for up to 4 days. A constrained nomenclature of “descriptors” is used to record the multiple and dynamic changes in movement, shape, and translucence of which the schistosome parasite is capable (Table S3).[70] These descriptors are then converted into an ordinal “severity score” system from 0 (no effect) to 4 (maximum effect), which allows for the relative comparison of compound effects, as described.[74],[75] Images of NTS were captured using a Zeiss Axiovert 40 C inverted microscope (10× objective) and a Zeiss AxioCam MRc digital camera controlled by AxioVision 40 (v. 4.8.1.0) software."}, "[2]": {"assay": "Cytotoxicity, XTT test, HepG2", "format": "cell-based", "conditions": "human, % viability vs. untreated cells, read-out: Cell line viability after 72 h; for viability at 72 h, 1 µM: HepG2, 1 µM; for viability at 72 h, 10 µM: HepG2, 10 µM", "experimental": "(§1) T able S4. […]\n(§2) Cell line viability after 72 h (%)a\n(§3) Inhibitor 1 µM 10 µM 1 µM 10 µM\n(§4) aCytotoxicity of the inhibitors towards human cell lines are expressed as % viability vs. untreated cells. Cells were treated with\n(§5) the indicated concentration of the compounds for 72 h and assayed by means of the XTT test (as described previously 12).\n(§6) Standard deviation values were within 10% of the mean of tetraplicates. […]"}, "[3]": {"assay": "Cytotoxicity, XTT test, HUVEC", "format": "cell-based", "conditions": "human, % viability vs. untreated cells, read-out: Cell line viability after 72 h", "experimental": "as §1, §2, §3, §4, §5, §6"}}, "note": "“And” between values parts separate entries of the source, which are not always exact repeats. Equal values may be shown once.", "data": [{"smiles": "CCCCCN(C#N)N(C)C(=O)[C@H](Cc1ccccc1)NC(=O)OCc1ccccc1", "note": "[Compound 9a]", "values": [{"measurement": "Ki", "setting": "recombinant SmCB1", "result": "6.2 ± 0.5", "unit": "nM"}, {"measurement": "SmCB1 inhibition k2nd (second-order rate constant)", "setting": "recombinant SmCB1", "result": "2.1 10^3 M^-1 s^-1 and 2.1 ± 0.3 10^3 M^-1 s^-1"}, {"measurement": "Descriptors Day 1 (phenotypic changes)", "setting": "[1]; 10 µM inhibitor", "result": "Deg"}, {"measurement": "Descriptors Day 2 (phenotypic changes)", "setting": "[1]; 10 µM inhibitor", "result": "Deg"}, {"measurement": "Severity score Day 1", "setting": "[1]", "result": "4 and 4/4"}, {"measurement": "Severity score Day 2", "setting": "[1]", "result": "4 and 4/4"}, {"measurement": "Severity score Day 3", "setting": "[1]", "result": 4}, {"measurement": "Severity score Day 4", "setting": "[1]", "result": 4}, {"measurement": "viability at 72 h, 1 µM", "setting": "[2]", "result": 85, "unit": "%"}, {"measurement": "viability at 72 h, 10 µM", "setting": "[2]", "result": 78, "unit": "%"}, {"measurement": "viability at 72 h, 1 µM", "setting": "[3]", "result": 104, "unit": "%"}, {"measurement": "viability at 72 h, 10 µM", "setting": "[3]", "result": 81, "unit": "%"}]}, {"smiles": "CN(C#N)N(C)C(=O)[C@H](CC1CCCCC1)NC(=O)OCc1ccccc1", "note": "[Compound 11a]", "values": [{"measurement": "Ki", "setting": "recombinant SmCB1", "result": "4.6 ± 0.5", "unit": "nM"}, {"measurement": "SmCB1 inhibition k2nd (second-order rate constant)", "setting": "recombinant SmCB1", "result": "32.7 ± 2.8 10^3 M^-1 s^-1"}, {"measurement": "Descriptors Day 1 (phenotypic changes)", "setting": "[1]; 10 µM inhibitor", "result": "R, Unc"}, {"measurement": "Descriptors Day 2 (phenotypic changes)", "setting": "[1]; 10 µM inhibitor", "result": "Deg"}, {"measurement": "Descriptors Day 3 (phenotypic changes)", "setting": "[1]; 10 µM inhibitor", "result": "Deg"}, {"measurement": "Severity score Day 1", "setting": "[1]", "result": 2}, {"measurement": "Severity score Day 2", "setting": "[1]", "result": 4}, {"measurement": "Severity score Day 3", "setting": "[1]", "result": 4}, {"measurement": "Severity score Day 4", "setting": "[1]", "result": 4}, {"measurement": "viability at 72 h, 1 µM", "setting": "[2]", "result": 89, "unit": "%"}, {"measurement": "viability at 72 h, 10 µM", "setting": "[2]", "result": 109, "unit": "%"}, {"measurement": "viability at 72 h, 1 µM", "setting": "[3]", "result": 92, "unit": "%"}, {"measurement": "viability at 72 h, 10 µM", "setting": "[3]", "result": 85, "unit": "%"}]}]}
